Columns and labels:
Type in all cases: cell-based
B16-Ras cells [1] = test: CSE1L in cell lysates and conditioned media by immunoblotting; details: 50 μM, 24 h
Procedure: Cells were washed with phosphate-buffered saline (PBS) and lysed in ice-cold radioimmunoprecipitation assay (RIPA) buffer [25 Mm Tris-HCl (pH 7.2), 0.1% SDS, 0.1% Triton X-100, 1% sodium deoxycholate, 150 mM NaCl, 1 mM EDTA, 1 mM sodium orthovanadate, 1 mM phenylmethylsulfonyl fluoride, 10 μg/ml aprotinin, 5 μg/ml leupeptin, 25 mM β-glycerophosphate, 5 mM sodium orthovanadate, and 5 mM sodium fluoride]. The protein concentrations were determined with a BCA protein assay kit (Pierce, Rockford, Ill., USA). Fifty micrograms of each protein sample was loaded onto SDS-polyacrylamide gel. Proteins were transferred to nitrocellulose membranes (Amersham Pharmacia, Buckinghamshire, UK). […] The levels of protein were detected by Forte Western HRP Substrate (Millipore Corp., Billerica, Mass., USA) according to the manufacturer's instructions.
For Immunoblotting with biotin-conjugated antibodies, the biotin-conjugated antibody was prepared by biotinylating anti-CSE1L antibodies using the Biotin Labeling Kit-NH2 kit according to the manufacturer's protocol (Dojindo Laboratories, Kumamoto, Japan). The Immunoblot was then reacted with horseradish peroxidase (HRP)-conjugated streptavidin and the levels of protein were detected by Forte Western HRP Substrate. […]

B16-Ras cells [2] = test: Threonine phosphorylated CSE1L by immunoprecipitation and immunoblotting; details: 50 μM, 24 h
Procedure: Cells grown on plastic dishes were washed with PBS and incubated in immunoprecipitation lysis buffer [10 mM Tris-HCl (pH 7.4), 10 mM EDTA, 0.4% deoxycholic acid, 0.5% Triton X-100, 1 mM phenylmethylsulfonyl fluoride, 10 μg/ml aprotinin, 5 μg/ml leupeptin, 25 mM β-glycerophosphate, 5 mM sodium orthovanadate, and 5 mM sodium fluoride] at 4° C. for 20 min. Cells were scraped and disrupted by pipetting. The cell lysate was cleared of insoluble materials by centrifugation at 12,000 g for 10 min at 4° C., and the protein concentrations were determined with a BCA protein assay kit (Pierce). […]
(A) Levels of cellular threonine phosphorylated CSE1L in B16-dEV cells and B16-Ras cells treated with DMSO or 50 μM PD98059 for 24 h were analyzed by immunoprecipitation with anti-CSE1L antibodies and immunoblotting with HRP-conjugated anti-phosphothreonine antibodies. […] (B) Levels of secretory threonine phosphorylated CSE1L in cell number-standardized conditioned media harvested from serum-starved B16-dEV cells and B16-Ras cells treated with DMSO or 50 μM PD98059 for 24 h were analyzed by immunoprecipitation with anti-CSE1L antibodies and immunoblotting with HRP-conjugated anti-phosphothreonine antibodies. […] (D) The levels of CSE1L in the pool of cancer sera and normal sera were analyzed by immunoblotting with anti-CSE1L antibodies (clone 24).

B16-Ras cells [3] = test: Levels of microvesicular MMP-2 in microvesicles from conditioned media (immunoblot); details: 50 μM, 48 h, serum-starved B16-Ras cells
Procedure: Cells were washed with phosphate-buffered saline (PBS) and lysed in ice-cold radioimmunoprecipitation assay (RIPA) buffer [25 Mm Tris-HCl (pH 7.2), 0.1% SDS, 0.1% Triton X-100, 1% sodium deoxycholate, 150 mM NaCl, 1 mM EDTA, 1 mM sodium orthovanadate, 1 mM phenylmethylsulfonyl fluoride, 10 μg/ml aprotinin, 5 μg/ml leupeptin, 25 mM β-glycerophosphate, 5 mM sodium orthovanadate, and 5 mM sodium fluoride]. The protein concentrations were determined with a BCA protein assay kit (Pierce, Rockford, Ill., USA). Fifty micrograms of each protein sample was loaded onto SDS-polyacrylamide gel. Proteins were transferred to nitrocellulose membranes (Amersham Pharmacia, Buckinghamshire, UK). The membrane was blocked in blocking buffer [1% bovine serum albumin (BSA), 50 mM Tris-HCl (pH 7.6), 150 mM NaCl, and 0.1% Tween-20] at room temperature for 1 h. The blots were then incubated with primary antibodies at 4° C. overnight followed by incubation with secondary antibodies conjugated to horseradish peroxidase for 1 h. The levels of protein were detected by Forte Western HRP Substrate (Millipore Corp., Billerica, Mass., USA) according to the manufacturer's instructions.
Microvesicles were prepared from conditioned media or sera by size exclusion chromatography and ultracentrifugation. […] Fractions (1 ml) were collected, and the protein content was monitored by measuring absorbance at 280 nm. […]

B16-Ras cells [4] = test: Gelatin zymography assay of microvesicular MMP-2; details: 50 μM PD98059, or stable CSE1L shRNA transfection; microvesicles from conditioned media of serum-starved cells
Procedure: Microvesicles harvested from cell number-standardized conditioned media were resolved using 10% SDS-PAGE containing 1 mg/ml gelatin. The gel was washed twice with 2.5% Triton X-100 for 30 min to remove SDS, and subsequently incubated in buffer containing 50 mM Tris-HCl (pH 7.6), 200 mM NaCl, and 10 mM CaCl2 at 37° C. for 24 h. The gel was stained with Comassie blue R-250 (0.125% Comassie blue R-250, 50% methanol, 10% acetic acid) for 30 min and destained with destaining solution (20% methanol, 10% acetic acid, 70% ddH2O) until the clear bands were visualized.
(A) Gelatin zymographic activities of MMP-2 in microvesicles harvested form the cell number-standardized conditioned media of serum-starved B16-dEV, B16-Ras, B16-CSE1L, and B16-Ras/anti-CSE1L cells treated with or without DMSO or 50 μM PD98059 for 48 h as indicated. (B) The in vitro invasion abilities of B16-dEV, B16-Ras, B16-CSE1L, and B16-Ras/anti-CSE1L cells analyzed by Matrigel-based invasion assays. The mean±SD numbers of invasive cells were 109.4±12.6, 406.8±23.9, 311.25±32.4, and 46.75±8.7 cells per field for B16-dEV, B16-CSE1L, B16-Ras, and B16-Ras/anti-CSE1L cells, respectively.

[5] = conditioned media of serum-starved B16-Ras cells

## COc1cccc(-c2cc(=O)c3ccccc3o2)c1N [PD98059]
B16-Ras cells [1]; cell lysates
  Effect on CSE1L expression in cells: did not obviously affect CSE1L expression in cells
B16-Ras cells [1]; [5]
  Effect on v-H-ras-induced increase in CSE1L secretion: attenuated v-H-ras-induced increase in CSE1L secretion
B16-Ras cells [2]; cell lysates of B16-Ras cells
  Effect on v-H-ras-increased threonine phosphorylation of cellular CSE1L: inhibited v-H-ras-increased threonine phosphorylation in CSE1L
B16-Ras cells [2]; [5]
  Effect on v-H-ras-increased secretion of threonine phosphorylated CSE1L: inhibited v-H-ras-increased secretion of threonine phosphorylated CSE1L
B16-Ras cells [3]
  Effect on v-H-ras-induced increase in microvesicular MMP-2: attenuated v-H-ras-induced increase in MMP-2 in microvesicles
B16-Ras cells [4]
  Effect on v-H-ras-induced increase in zymographic activity of microvesicular MMP-2: attenuated the v-H-ras-induced increase in the zymographic activity of microvesicular MMP-2
